Counter-ions that a name gives are not always drawn. Like-named read-outs stand apart in the source and are kept apart here.
Experiments:
[1] = molecular target: Ras GEF SOS (Son of Sevenless) (Homo sapiens, UniProt Q07889); test: SOS-mediated nucleotide exchange on Ras (BODIPY-GDP fluorescence); type: biochemical; details: SOS-mediated exchange of BODIPY-GDP for GTP on Ras
Summary of the method: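 Exchange rates were taken from single-exponential fits of the fluorescence time course as BODIPY-GDP on Ras was replaced by GTP. Compound went in first, then GTP and SOS. Mean rates plotted against concentration gave EC50 by four-parameter dose-response fitting.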

[2] = molecular target: T1, Son of Sevenless (SOS) (Homo sapiens, UniProt Q07889); test: Binding to SOS, fluorescence polarization anisotropy (FPA) probe displacement; details: displacement of FITC-conjugated probe (Example 285), affinity calculated from IC50
T1 sequence (Q07889 564-1049 limits assumed): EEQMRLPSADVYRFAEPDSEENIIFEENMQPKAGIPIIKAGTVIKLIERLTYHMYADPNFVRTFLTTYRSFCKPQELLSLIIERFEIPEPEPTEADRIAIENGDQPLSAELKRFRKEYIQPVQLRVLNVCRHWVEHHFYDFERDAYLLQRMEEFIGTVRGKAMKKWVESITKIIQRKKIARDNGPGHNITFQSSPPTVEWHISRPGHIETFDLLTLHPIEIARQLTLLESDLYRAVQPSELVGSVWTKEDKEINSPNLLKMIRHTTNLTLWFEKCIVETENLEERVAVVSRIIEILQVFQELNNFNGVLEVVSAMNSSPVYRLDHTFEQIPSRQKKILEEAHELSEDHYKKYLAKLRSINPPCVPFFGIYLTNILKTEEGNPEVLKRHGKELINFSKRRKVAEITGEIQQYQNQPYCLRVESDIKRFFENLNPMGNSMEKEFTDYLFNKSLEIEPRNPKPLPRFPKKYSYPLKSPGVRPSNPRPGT
Summary of the method: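 Test compounds were titrated against SOS pre-bound to a fluorescein-labelled probe, with anisotropy plotted versus compound concentration. Binding affinities were derived from IC50 values obtained by four-parameter dose-response fitting.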

[3] = tested on: H727 lung cancer cell lines (G12V K-Ras mutation); test: Inhibition of cancer cell proliferation (CellTiter-Glo); type: cell-based; details: Homo sapiens, NCI-H727, 72 h, read-out: Cell proliferation activity (H727 cancer cell line proliferation IC50)
Procedure: Compounds of the present invention were measured for their ability to kill H727 lung cancer cell lines, which contain a G12V K-Ras mutation. Cell proliferation experiments were conducted in 96-well plates. Cells were plated at 1000 cells/well, incubated overnight, followed by treatment with a dose range of compound for 3 days at 37° C. Cell proliferation was assessed using a CellTiter-Glo assay (Promega) according to the manufacturer's protocol. Data were normalized to DMSO control. IC50 values were determined using a four-parameter dose-response (variable slope) equation. These assays are performed in a manner analogous to the assay disclosed in: Burns, M. C.; Sun, Q.; Daniels, R. N.; Camper, D. V.; Kennedy, J. P.; Phan, J.; Olejniczak, E. O.; Lee, T.; Waterson, A. G.; Rossanese, O. W.; Fesik, S. W. “Approach for targeting Ras with small molecules that activate SOS-mediated nucleotide exchange” Proc. Natl. Acad. Sci. 2014; 11(9): 3401-3406. PMCID: PMC3948241.

[4] = H727 cells, 3 days treatment, CellTiter-Glo

Ras GEF SOS (Son of Sevenless), sequence (P01112 1-166 partner limits assumed, one chain of several): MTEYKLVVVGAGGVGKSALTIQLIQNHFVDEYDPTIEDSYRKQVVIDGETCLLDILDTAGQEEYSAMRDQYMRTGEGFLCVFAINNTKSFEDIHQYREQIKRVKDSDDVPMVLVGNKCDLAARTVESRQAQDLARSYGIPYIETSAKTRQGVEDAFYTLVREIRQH

Row | IC50 [3, 4] [µM] | Structure (SMILES) | EC50 [1] [µM] | Ki [2] [µM] | IC50 [3] [µM]
1 | – | CCc1cc(Cn2c(N3CCNCC3)nc3cc(C)c(C)cc32)cc(CC)c1F [Example 49, 1-(3,5-diethyl-4-fluorobenzyl)-5,6-dimethyl-2-(piperazin-1-yl)-1H-benzo[d]imidazole trifluoroacetate] | 1 to 5 | > 5 | 1 to 5
2 | – | CCc1cc(Cn2c(N3CCNCC3)nc3cc(C)c(C)cc32)ccc1F [Example 50, 1-(3-ethyl-4-fluorobenzyl)-5,6-dimethyl-2-(piperazin-1-yl)-1H-benzo[d]imidazole trifluoroacetate] | 1 to 5 | > 5 | 1 to 5
3 | – | Cc1cc2nc(N3CCNCC3)n(Cc3ccc(F)c(C4CC4)c3)c2cc1C [Example 51, 1-(3-cyclopropyl-4-fluorobenzyl)-5,6-dimethyl-2-(piperazin-1-yl)-1H-benzo[d]imidazole trifluoroacetate] | 5 to 30 | > 5 | 1 to 5
4 | – | C=Cc1cc(Cn2c(N3CCNCC3)nc3cc(C)c(C)cc32)ccc1F [Example 52, 1-(4-fluoro-3-vinylbenzyl)-5,6-dimethyl-2-(piperazin-1-yl)-1H-benzo[d]imidazole trifluoroacetate] | 5 to 30 | > 5 | > 20
5 | – | Fc1ccc(Cn2c(NCC3CNC3)nc3ccc(Cl)cc32)cc1Cl [Example 75, N-(azetidin-3-ylmethyl)-6-chloro-1-(3-chloro-4-fluorobenzyl)-1H-benzo[d]imidazol-2-amine trifluoroacetate] | 1 to 5 | 1 to 5 | 1 to 5
6 | – | NCC1CN(c2nc3ccc(Cl)cc3n2Cc2ccc(F)c(Cl)c2)C1 [Example 76, (1-(6-chloro-1-(3-chloro-4-fluorobenzyl)-1H-benzo[d]imidazol-2-yl)azetidin-3-yl)methanamine trifluoroacetate] | < 1 | < 0.5 | 1 to 5
7 | – | Fc1ccc(Cn2c(NC3CCNC3)nc3ccc(Cl)cc32)cc1Cl (stereo not drawn) [Example 77, 6-chloro-1-(3-chloro-4-fluorobenzyl)-N-(pyrrolidin-3-yl)-1H-benzo[d]imidazol-2-amine trifluoroacetate] | < 1 | 0.5 to 1 | 1 to 5
8 | – | COc1ccccc1-c1cccc2c1nc(N1CCNCC1)n2Cc1ccc(F)c(Cl)c1 [Example 81, 1-(3-chloro-4-fluorobenzyl)-4-(2-methoxyphenyl)-2-(piperazin-1-yl)-1H-benzo[d]imidazole trifluoroacetate] | 1 to 5 | 0.5 to 1 | 5 to 20
9 | 5 to 20 | Fc1ccc(Cn2c(N3CCNCC3)nc3c(-c4cccnc4)cccc32)cc1Cl [Example 89, 1-(3-chloro-4-fluorobenzyl)-2-(piperazin-1-yl)-4-(pyridin-3-yl)-1H-benzo[d]imidazole] | 1 to 5 | 1 to 5 | –
10 | 1 to 5 | Cc1cc(-c2cccc3c2nc(N2CCNCC2)n3Cc2ccc(F)c(Cl)c2)n(C)n1 [Example 93, 1-(3-chloro-4-fluorobenzyl)-4-(1,3-dimethyl-1H-pyrazol-5-yl)-2-(piperazin-1-yl)-1H-benzo[d]imidazole] | 1 to 5 | 1 to 5 | –
11 | 1 to 5 | CC(C)c1ccccc1-c1cccc2c1nc(N1CCNCC1)n2Cc1ccc(F)c(Cl)c1 [Example 94, 1-(3-chloro-4-fluorobenzyl)-4-(2-isopropylphenyl)-2-(piperazin-1-yl)-1H-benzo[d]imidazole] | 1 to 5 | 1 to 5 | –
12 | – | Cc1cc2c(nc(N3CCNCC3)n2Cc2ccc(F)c(Cl)c2)c(-c2ccccc2)c1C [Example 104, 1-(3-chloro-4-fluorobenzyl)-5,6-dimethyl-4-phenyl-2-(piperazin-1-yl)-1H-benzo[d]imidazole trifluoroacetate] | 1 to 5 | 1 to 5 | 1 to 5
13 | – | Cc1cc2c(nc(N3CCNCC3)n2Cc2ccc(Cl)cc2)c(-c2ccccc2Cl)c1C [Example 106, 1-(4-chlorobenzyl)-4-(2-chlorophenyl)-5,6-dimethyl-2-(piperazin-1-yl)-1H-benzo[d]imidazole trifluoroacetate] | 1 to 5 | 1 to 5 | 1 to 5
14 | – | Cc1cc2c(nc(N3CCNCC3)n2Cc2ccc(Cl)cc2)c(-c2ccccc2F)c1C [Example 107, 1-(4-chlorobenzyl)-4-(2-fluorophenyl)-5,6-dimethyl-2-(piperazin-1-yl)-1H-benzo[d]imidazole trifluoroacetate] | 1 to 5 | 1 to 5 | 5 to 20
15 | – | Cc1cc2c(nc(N3CCNCC3)n2Cc2ccc(F)c(Cl)c2)c(-c2ccc(CN)cc2)c1C [Example 108, (4-(1-(3-chloro-4-fluorobenzyl)-5,6-dimethyl-2-(piperazin-1-yl)-1H-benzo[d]imidazol-4-yl)phenyl)methanamine trifluoroacetate] | < 1 | 0.5 to 1 | 1 to 5
16 | 1 to 5 | Cc1cc2c(nc(N3CCNCC3)n2Cc2ccc(F)c(Cl)c2)c(-c2ccccc2C(C)C)c1C [Example 109, 1-(3-chloro-4-fluorobenzyl)-4-(2-isopropylphenyl)-5,6-dimethyl-2-(piperazin-1-yl)-1H-benzo[d]imidazole] | 1 to 5 | 0.5 to 1 | –
17 | 1 to 5 | COc1ccc(-c2c(C)c(C)cc3c2nc(N2CCNCC2)n3Cc2ccc(F)c(Cl)c2)cc1OC [Example 110, 1-(3-chloro-4-fluorobenzyl)-4-(3,4-dimethoxyphenyl)-5,6-dimethyl-2-(piperazin-1-yl)-1H-benzo[d]imidazole] | 1 to 5 | 1 to 5 | –
18 | – | Cc1cc2c(nc(NCCN)n2Cc2ccc(F)c(Cl)c2)c(-c2ccccc2)c1C [Example 111, N^1-(1-(3-chloro-4-fluorobenzyl)-5,6-dimethyl-4-phenyl-1H-benzo[d]imidazol-2-yl)ethane-1,2-diamine trifluoroacetate] | 1 to 5 | 1 to 5 | 1 to 5
19 | – | Cc1cc2c(nc(NCCN)n2Cc2ccc(F)c(Cl)c2)c(-c2ccccc2Cl)c1C [Example 113, N^1-(1-(3-chloro-4-fluorobenzyl)-4-(2-chlorophenyl)-5,6-dimethyl-1H-benzo[d]imidazol-2-yl)ethane-1,2-diamine trifluoroacetate] | 1 to 5 | < 0.5 | 1 to 5
20 | – | Cc1cc2c(nc(NCCN)n2Cc2ccc(F)c(Cl)c2)c(-c2c(C)nn(C)c2C)c1C [Example 114, N^1-(1-(3-chloro-4-fluorobenzyl)-5,6-dimethyl-4-(1,3,5-trimethyl-1H-pyrazol-4-yl)-1H-benzo[d]imidazol-2-yl)ethane-1,2-diamine trifluoroacetate] | 1 to 5 | 1 to 5 | 5 to 20
21 | – | Cc1cc(-c2ccccc2Cl)c2nc(N3CCNCC3)n(Cc3ccc(F)c(Cl)c3)c2c1 [Example 118, 1-(3-chloro-4-fluorobenzyl)-4-(2-chlorophenyl)-6-methyl-2-(piperazin-1-yl)-1H-benzo[d]imidazole trifluoroacetate] | 1 to 5 | < 0.5 | 1 to 5
22 | – | Cc1cc(-c2ccccc2F)c2nc(N3CCNCC3)n(Cc3ccc(F)c(Cl)c3)c2c1 [Example 119, 1-(3-chloro-4-fluorobenzyl)-4-(2-fluorophenyl)-6-methyl-2-(piperazin-1-yl)-1H-benzo[d]imidazole trifluoroacetate] | 1 to 5 | < 0.5 | > 20

Reference: patent US10501421B1, “Substituted benzimidazoles as modulators of Ras signaling” (VANDERBILT UNIVERSITY, priority 2017, dated 2019)
